# “Also recorded” adds a separate entry of the source.
# Key:
# [1] = tested on: encephalitogenic BP10 T-cell line; assay: Adoptive EAE by BP10 line stimulated in vitro with test substance; format: in vivo, rat
# From the text: The ability of a compound to enhance T cell activity may be determined, for example, using an in vivo assay testing the effect of a given compound on the severity of adoptive (passive) EAE, namely, EAE which is induced by the injection of activated encephalitogenic T cell line to the model animal. In order to test a compound, the encephalitogenic T cells are activated in the presence of the compound prior to injection. An exemplary procedure is described in the Examples section hereinbelow.
# Antigen-specific T-cell lines were established from lymph node cells that had been stimulated with myelin basic protein (MBP; 10 μg/ml) for 3 days in stimulation medium as described below. Following stimulation, the T-cell blasts were isolated on Lympho-prep (Nycomed Pharma, Oslo, Norway) and seeded in propagation medium. Propagation medium was identical to stimulation medium without autologous serum, but supplemented with fetal calf serum 10% and T-cell growth factors from the supernatant of Con A stimulated spleen cells 10% (Mor et al. (1990) J Clin Invest, 85, 1594-1598). Animals were injected intra-peritoneally with 10^7 MBP-stimulated T cells, following 6-8 cycles of in vitro stimulations. It is known that MBP-reactive lines undergo a reduction in pathogenicity after 6 or more in vitro stimulations. In some experiments the BP10 line was stimulated with phorbol myristate acetate (PMA; 50 ng/ml) and ionomycin (500 ng/ml) for 3 days in stimulation medium, without antigen-presenting cells.
# Active EAE was induced by subcutaneous injection of 25 μg guinea-pig MBP (GpMBP) in complete Freund's adjuvant (CFA). CFA was prepared by adding 4 mg/ml Mycobacterium tuberculosis H37Ra (Difco, Mich.) to incomplete Freund's adjuvant (IFA). Adoptive EAE was transferred by intra-peritoneal injection of guinea-pig MBP-activated cells of the BP10 line as described in Mor et al. (1993) J Clin Invest, 92, 2199-2206. […] Clinical scoring was: +1, paralysis of tail; +1.5, paresis of posterior paws and ataxia; +2, paraplegia; +3, paralysis extending to thoracic spine; +4, a moribund state.
# Treatment with cefuroxime in vivo could affect many different host agents involved in EAE or AA as well as influencing the rats' bacterial flora. To test whether the antibiotic might directly modify the behavior of effector T cells, an encephalitogenic T-cell line was stimulated in the presence or absence of cefuroxime in vitro. The weakly encephalitogenic BP10 line was used, and was stimulated for 3 days with MBP in the presence or absence of cefuroxime (50 μg/ml). The activated T cells were then washed to remove the antibiotic, the T cells were injected intra-peritoneally into naïve recipient rats (10^7 per rat), and EAE was scored. The BP10 line at later stimulations was used, when its pathogenic potential is reduced, allowing to detect both suppression and enhancement of disease. […] To rule out antigen presenting cells (APC) as the target of the beta-lactam antibiotic, the encephalitogenic BP10 line was stimulated without APC using PMA (50 ng/ml) and Ionomycin (500 ng/ml) in the presence or absence of cefuroxime.
# CD4+ human T cells = assay: Human Autoimmune and Inflammatory Response Gene Array, anti-CD3 stimulated T cells; format: cell-based; settings: 120 min anti-CD3; for % decrease by Cef.: cefuroxime 50 μg/ml, ±SD, relative to control
# Protocol: T cells were purified from the peripheral bloods of healthy human donors (Blood Bank, Sheba Medical center). The whole blood was incubated (20 min, 22° C.) with RosetteSep™ human T cell enrichment mixture (StemCell Technologies, Vancouver, Canada). The remaining unsedimented cells were then loaded onto lymphocyte separation medium (ICN Biomedicals, Irvine, Calif.), isolated by density centrifugation, and washed with PBS. […] In a second round of purification, CD3^+ T cells were labeled for selection with a magnetically coupled mAb against CD4 (Miltenyi Biotec, Auburn, Calif.).
# Human CD4 T cells were isolated as described, and incubated in 24 well plates (Nunc), 4×10^6 cells/ml with plate bound anti-human CD3 (OKT3) at 2 μg/ml. The stimulation was performed in RPMI medium supplemented with 0.1% BSA. […] RNA was extracted from samples and used to prepare probes for gene array in accord with the manufacturer's instructions (SuperArray Bioscience, Frederick, Md.). Adequate labeling of the probes was tested before hybridization. Three healthy donors were tested in stimulation with cefuroxime. The membranes were analyzed online with the Image Data Acquisition and Expression Analysis (SuperArray Bioscience).
# The Human Autoimmune and Inflammatory Response Gene Array (SuperArray Bioscience corporation, Frederick, Md., USA) was used for analysis of gene expression by the T cells. This array contains 367 genes including cytokines, chemokines and their receptors, transcription factors and signaling proteins. […] Analysis of the results was performed using the GEArray analysis program (www.SuperArray.com). […] To verify the results detected by the gene array study, a panel of six genes was designed and tested by real-time PCR: CCR4, ACVR2, JAK1, STAT4, TLR2 and NFKBIE. The cDNA that was used was prepared from the same RNA used for the gene array experiment.
compound,measurement,setting,value
CO/N=C(\C(=O)N[C@@H]1C(=O)N2C(C(=O)O)=C(COC(N)=O)CS[C@H]12)c1ccco1 [cefuroxime],severity of adoptive EAE,"[1]; BP10 line stimulated 3 days with MBP in presence of 50 μg/ml, 10^7 cells IP per rat",markedly enhanced the manifestations of EAE; also recorded: enhanced EAE severity; also recorded: enhances the pathogenicity of the BP10 line
same,severity of adoptive EAE,[1]; BP10 line stimulated without APC using PMA (50 ng/ml) and Ionomycin (500 ng/ml),significantly more severe
same,severity of adoptive EAE,"[1]; dose-response, BP10 line stimulated in presence of 5 μg/ml",ineffective
same,severity of adoptive EAE,"[1]; dose-response, BP10 line stimulated in presence of 25 μg/ml",enhancing effect similar to that of 50 μg/ml
same,number of genes down-regulated,"CD4+ human T cells; array of 367 genes, 50 μg/ml",Fifty-seven
same,% decrease by Cef.,CD4+ human T cells; gene ACTB,49 ± 11%
same,% decrease by Cef.,CD4+ human T cells; gene ACVR1,42 ± 0.7%
same,% decrease by Cef.,CD4+ human T cells; gene ACVR2,60 ± 14.8%
same,% decrease by Cef.,CD4+ human T cells; gene CCL5,21 ± 5.6%
same,% decrease by Cef.,CD4+ human T cells; gene CCL11,18 ± 6.6%
same,% decrease by Cef.,CD4+ human T cells; gene CCR4,39 ± 2%
same,% decrease by Cef.,CD4+ human T cells; gene CCR6,53 ± 5.6%
same,% decrease by Cef.,CD4+ human T cells; gene CCR7,38 ± 8.1%
same,% decrease by Cef.,CD4+ human T cells; gene CD28,51 ± 2.1%
same,% decrease by Cef.,CD4+ human T cells; gene CD40LG,33 ± 7.1%
same,% decrease by Cef.,CD4+ human T cells; gene CREB1,19 ± 4.9%
same,% decrease by Cef.,CD4+ human T cells; gene CREBBP,40 ± 9.9%
same,% decrease by Cef.,CD4+ human T cells; gene CXCL10,39 ± 3%
same,% decrease by Cef.,CD4+ human T cells; gene EGR3,38 ± 2.8%
same,% decrease by Cef.,CD4+ human T cells; gene GFI1,45 ± 14%
same,% decrease by Cef.,CD4+ human T cells; gene HRAS,30 ± 9.8%
same,% decrease by Cef.,CD4+ human T cells; gene IL1B,54 ± 7.0%
same,% decrease by Cef.,CD4+ human T cells; gene IL2RB,50 ± 9.9%
same,% decrease by Cef.,CD4+ human T cells; gene IL2RG,57 ± 9.8%
same,% decrease by Cef.,CD4+ human T cells; gene IL9R,27.5 ± 3%
same,% decrease by Cef.,CD4+ human T cells; gene IL16,50 ± 7.8%
same,% decrease by Cef.,CD4+ human T cells; gene IRAK1,44 ± 2.1%
same,% decrease by Cef.,CD4+ human T cells; gene JAK1,53 ± 13.4%
same,% decrease by Cef.,CD4+ human T cells; gene JUN,49 ± 2.2%
same,% decrease by Cef.,CD4+ human T cells; gene LTA,17 ± 10%
same,% decrease by Cef.,CD4+ human T cells; gene MAP2K4,52 ± 14.1%
same,% decrease by Cef.,CD4+ human T cells; gene MAP3K1,53 ± 12%
same,% decrease by Cef.,CD4+ human T cells; gene MAP3K2,36 ± 12%
same,% decrease by Cef.,CD4+ human T cells; gene MAP3K7,46 ± 9.9%
same,% decrease by Cef.,CD4+ human T cells; gene MAPK9,42 ± 10.9%
same,% decrease by Cef.,CD4+ human T cells; gene NFKB1,43 ± 3.5%
same,% decrease by Cef.,CD4+ human T cells; gene NFKB2,53 ± 10.6%
same,% decrease by Cef.,CD4+ human T cells; gene NFKBIE,63 ± 11%
same,% decrease by Cef.,CD4+ human T cells; gene NFKBIL1,54 ± 12.5%
same,% decrease by Cef.,CD4+ human T cells; gene PAK1,40 ± 2.4%
same,% decrease by Cef.,CD4+ human T cells; gene PIN1,45 ± 12.1%
same,% decrease by Cef.,CD4+ human T cells; gene RANBP5,33 ± 3.5%
same,% decrease by Cef.,CD4+ human T cells; gene REL,45 ± 1.9%
same,% decrease by Cef.,CD4+ human T cells; gene RFX5,36 ± 4.2%
same,% decrease by Cef.,CD4+ human T cells; gene RFXAP,27 ± 12%
same,% decrease by Cef.,CD4+ human T cells; gene SDF2,28 ± 12%
same,% decrease by Cef.,CD4+ human T cells; gene SELL,46 ± 7.0%
same,% decrease by Cef.,CD4+ human T cells; gene SMAD4,47 ± 7.0%
same,% decrease by Cef.,CD4+ human T cells; gene SMAD7,47 ± 4.2%
same,% decrease by Cef.,CD4+ human T cells; gene SP3,39 ± 9.9%
same,% decrease by Cef.,CD4+ human T cells; gene SRF,38 ± 1.9%
same,% decrease by Cef.,CD4+ human T cells; gene STAT1,32 ± 11%
same,% decrease by Cef.,CD4+ human T cells; gene STAT4,47 ± 9.3%
same,% decrease by Cef.,CD4+ human T cells; gene STAT6,47 ± 7.9%
same,% decrease by Cef.,CD4+ human T cells; gene TGFBR3,44 ± 3.5%
same,% decrease by Cef.,CD4+ human T cells; gene TGIF,43 ± 3.5%
same,% decrease by Cef.,CD4+ human T cells; gene TLR2,52 ± 14%
same,% decrease by Cef.,CD4+ human T cells; gene TNFRSF11A,43 ± 2%
same,% decrease by Cef.,CD4+ human T cells; gene TNFα,29 ± 8.5%
same,% decrease by Cef.,CD4+ human T cells; gene TRAF5,43 ± 2.2%
same,% decrease by Cef.,CD4+ human T cells; gene TRAF6,43 ± 3.5%
same,% decrease by Cef.,CD4+ human T cells; gene YY1,23 ± 9.1%

# Reference: US9345691B2, “Beta-lactam compounds for enhancing T cell-mediated immune responses” (STEM CELL MEDICINE LTD., priority 2011, dated 2016)
